Test [1] has as its system Hep3B-OS8-hPDL1 cells and CD3+ T cells. In words: Hep3B-OS8-hPDL1 and T cells co-culture assay (IFN-γ by ELISA). The format is cell-based. To be noted: Homo sapiens, T-cell, 72 hours, read-out: Tumor and T Cell EC50 (nm). The method, then: a. Hep3B-OS8-hPDL1 and T Cells Co-Culture Assay
• 1. Hep3B-OS8-hPDL1 cells were cultured in 1640 medium supplemented with 10% fetal bovine serum, 1% penicillin and streptomycin, in which 100 μg/mL G418 and Hygromycin B were also added. • 2. Hep3B-OS8-hPDL1 cells were harvested and treated with 10 μg/mL mitomycin C at 37° C. for 1.5 h, and the cells were then washed thoroughly with PBS for four times. • 3. Cells were re-suspended with RPMI 1640 medium containing 10% FBS and the cell density was adjusted to 5E5 cells/mL. • 4. Cells were seeded into 96-well flat bottom plate (2.5E4 cells/50 μL/well). b. CD3+ T Cells Isolation (30 mL Blood) • 5. The human blood sample from an individual donor is diluted by the same volume of sterile PBS, for instance add 25 mL sterile PBS into 25 mL fresh whole blood and mix sufficiently by gentle shake. • 6. Transfer 15 mL Lymphoprep medium into a new 50 mL centrifuge tube. • 7. Add the diluted blood sample as soft as possible onto the surface of the Ficoll medium to make sure there is a clear dividing line between the two liquids, and the volume ratio between Ficoll and diluted blood (30 mL) is 1:2. • 8. Move the tube gently to centrifuge, at 1000×g, 25 min, 20° C., with the acceleration (5) and Min deceleration (0) settings during the centrifugation. • 9. Four interfaces in all could be observed after the centrifugation, which are layers of plasma, mononuclear cells, the Ficoll medium and RBCs from top to bottom, and move the tube as gently as possible so as keep the four interfaces separated. Absorb and transfer the second layer of mononuclear cells into another new sterile centrifuge tube carefully, and absorb certain volume of plasma instead of the Ficoll medium if inevitable. • 10. Add sterile PBS of the three times the volume of PBMCs in the tube with PBMC. • 11. Wash the cells twice with 5-10 mL PBS before cell counting with cytometer. Centrifuge at 350×g, 10 min, 20° C. With the acceleration (5) and deceleration (5) settings during the centrifugation. • 12. Resuspend the cells with recommended medium and adjust the density of the PBMCs to the final concentration of 5E7 cells/mL. • 13. Isolate CD3+ T cells with EasySep™ Human T Cell Isolation Kit (STEMCELL Technologies #17951), and the cells were seeded into 96-well flat bottom plate (5E4 cells/100 μL/well). c. Compounds solutions preparation • 14. Prepare the Compounds dilutions in RPMI 1640 medium with 10% FBS according to the Layout. 15. Add compounds into each well in a volume of 50 μL. {3 compounds (GLC01-258, GLC01-269, GLC01-465) in 7 concentrations (0.03, 0.1, 0.3, 1, 3, 10 and 30 μM) and 6 compounds (GLC01-411, GLC01-292, GLC01-445, GLC01-475, GLC01-470 and GLC01-468) in the same concentration (1 μM)}. • 16. […]

In test [2] the test system is Hep3B-OS8-hPDL1 / Jurkat-NFAT-PD1 cells. In words: PDL1 Jurkat-NFAT reporter assay. The format is cell-based. To be noted: Homo sapiens; 6 hours, luciferase. The method, then: PDL1 Jurkat-NFAT Reporter Assay
a. Preparation of Hep3B-OS8-hPDL1 • 1. Hep3B-OS8-hPDL1 cells were cultured in 1640 medium supplemented with 10% fetal bovine serum, 1% penicillin and streptomycin, in which 100 μg/mL G418 and Hygromycin B were also added. • 2. Cells were re-suspended with RPMI 1640 medium containing 10% FBS and the cell density was adjusted to 1.25E5 cells/mL. • 3. Cells were seeded into 96-well flat bottom plate (1.25E4 cells/100 μL/well). b. Compounds Solutions Preparation • 4. Remove the medium from pre-plated Hep3B-OS8-PDL1 cells. Wash once with 200 μL Assay Medium. • 5. Prepare the Compounds dilutions in RPMI 1640 medium with 10% FBS according to the Layout. • 6. Add compounds into each well in a volume of 50 μL in 9 concentrations (3, 1, 0.3, 0.1, 0.03, 0.01, 0.003, 0.001 and 0.0003 μM)}. Keytruda will be included as positive control at the concentration of 5 μg/mL. • 7. Incubate for 20-30 min at 37° C., 5% CO2. c. Preparation of Jurkat-NFAT-PD1 • 8. Jurkat-NFAT-PD1 cells were cultured in 1640 medium supplemented with 10% fetal bovine serum, 1% penicillin and streptomycin, in which 1000 μg/mL Hygromycin B and 0.3 μg/mL puromycin were also added. • 9. On the second day of assay, the cells were re-suspended with RPMI 1640 medium containing 10% FBS and the cell density was adjusted to 2.5E5 cells/mL. • 10. […]

The target in another test is PD-1/PD-L1 (Homo sapiens (Human), UniProt Q9NZQ7). In words: PD-1/PD-L1 Homogeneous Time-Resolved Fluorescence (HTRF) binding assay. To be noted: 3 nM PD1, 10 nM PD-L1, 25° C., PBS pH 7.4. The method in brief: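 HTRF with His-tagged human PD-L1 (19-238, 10 nM) and Fc-tagged human PD-1 (25-167, 3 nM) preincubated with inhibitors 40 min in PBS pH 7.4, 0.05% Tween-20, 0.1% BSA, 1% DMSO, 25° C. Eu anti-human IgG and anti-His-APC added, 60 min; 665/620 nm ratio; IC50 from percent control activity fit.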
Sequence of PD-1/PD-L1 (Q9NZQ7 19-238): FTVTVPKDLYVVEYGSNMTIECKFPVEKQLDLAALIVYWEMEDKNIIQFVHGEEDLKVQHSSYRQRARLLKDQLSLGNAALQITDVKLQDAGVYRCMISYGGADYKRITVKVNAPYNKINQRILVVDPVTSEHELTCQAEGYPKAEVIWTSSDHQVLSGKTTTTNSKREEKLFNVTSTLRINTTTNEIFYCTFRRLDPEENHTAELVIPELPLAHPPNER

Each structure is given as a SMILES string.

On to `O=C(O)[C@H](CO)NCCN1C(=O)COc2cc(-c3cccc(-c4cccc(-c5ccc6c(c5)OCC(=O)N6CCN[C@@H](CO)C(=O)O)c4Cl)c3Cl)ccc21` [Compound 465], for which the EC50 came out at 1.2 nM in test [1] and 0.3 nM in test [2]. Moreover, the IC50 on PD-1/PD-L1 turned out to be 3.58 nM.

For `O=C1COc2cc(-c3cccc(-c4cccc(-c5ccc6c(c5)OCC(=O)N6C[C@H]5CCCN5)c4Cl)c3Cl)ccc2N1C[C@H]1CCCN1` [Compound 529], the EC50 in test [1] turned out to be 325 nM; in test [2] it was 111 nM. For the same compound, the IC50 at PD-1/PD-L1 is 8.62 nM.
